Data published in patent EP0338092A1, “ANTI-HIV AGENT” (Chugai Seiyaku Kabushiki Kaisha, priority 1987, dated 1989).

Tested on: HIV
Experiment: Detection of viral antigen (indirect fluorescent antibody technique) in HIV-infected Molt-4 clone No. 8 cells
Format: cell-based
Procedure: The sodium salts of oligosaccharide poly-sulfate esters prepared in Preparation Examples 1 - 3 and 5 - 7 were used as test samples. Molt-4 clone No. 8 cells were infected with a virus obtained from Molt-4/HIV producing cell.
The experiment was conducted in accordance with the method of Itoh et al. described in Antiviral Research, 7 (1987), 361 - 367.
The proportions of HIV antigen positive cells were determined by an indirect fluorescent antibody technique using an anti-HIV antibody positive serum as antibody against the infected cells. The results are shown in Tables 2 and 3, in which each of the figure listed denotes the percentage of infected cells taken by HIV antigen positive cells.

[1] = Table 3, amount of sample added 7.8 µg/ml
[2] = Table 3, amount of sample added 32 µg/ml
[3] = Table 3, amount of sample added 125 µg/ml
[4] = Table 3, amount of sample added 500 µg/ml
[5] = Table 3, amount of sample added 1000 µg/ml

Substance	percentage of infected cells taken by HIV antigen positive cells [1] [%]	percentage of infected cells taken by HIV antigen positive cells [2] [%]	percentage of infected cells taken by HIV antigen positive cells [3] [%]	percentage of infected cells taken by HIV antigen positive cells [4] [%]	percentage of infected cells taken by HIV antigen positive cells [5] [%]
sodium salt of maltoheptaose sulfate ester [compound 7]	18.2	4.8	4.4	4.1	3.2
sodium salt of maltohexaose sulfate ester [compound 5]	20.3	5.3	5.8	3.6	4.4
sodium salt of maltopentaose sulfate ester [compound 6]	24.1	6.4	6.0	4.4	4.6
